Where two headings read alike, the source gives them in different places.

Series [1] deals with T1, hERG channel (Homo sapiens, UniProt Q12809, DEL141-380/DEL871-1005). The experiment in a line: in vitro. The settings on record: pH 7.4.
Series [2] concerns the target hERG (Homo sapiens, UniProt Q12809). Conditions: cited from earlier work.
Series [3] addresses T1, hERG channel. Description: biochemical.
Series [4] concerns the target T1, hERG channel. The experiment in a line: liposome flux assay (LFA) with engineered hERG channel protein in proteoliposomes. Conditions: n = 3, mean ± SEM, compared with DMSO controls. Background: The hERG channel carries a current that helps repolarise heart muscle cells.
For series [5], the target named is T1, hERG channel.
[6] abbreviates: read-out: IC50 patch, electrophysiology-determined values reported in the literature.

Consider `CC(=O)Nc1ccc(O)cc1` [Acetaminophen], for which the inhibition at 100 µM in series [1] was 11.6 ± 7.5%. Turning to `CC(=O)Nc1nnc(S(N)(=O)=O)s1` [Acetazolamide], the inhibition at 100 µM in series [1] is 4.4 ± 1.8%. For `CCN(CC)CCCN(c1ccccc1)C1Cc2ccccc2C1` [Aprindine], the values for the half-inhibitory concentration (IC50) in series [2] (setting [6]) and in series [3] were 230 nM and 1880 ± 221 nM, respectively.

For the compound `NC[C@H](O)c1ccc(O)c(O)c1` [Arterenol], in series [4], the “Percentage inhibition (%) at 100 μM” value is given as 3.7 ± 4.3%. Turning to `CN1CCN(CCCCN2C(=O)CN(/N=C/c3ccc(-c4ccc(Cl)cc4)o3)C2=O)CC1` [Azimilide], the IC50 is 891 nM in series [2] (setting [6]) and 4280 ± 1030 nM in series [3]. Consider `CCCCOc1ccc(CC(=O)NO)cc1` [Bufexamac], for which the inhibition at 100 µM in series [1] came out at 1.7 ± 6.8%. Still for that read-out and setting: then `C[N+](C)(C)CCOC(N)=O` [Carbachol], with 2.2 ± 4.2%; and `CN/C(=N/CCSCc1nc[nH]c1C)NC#N` [Cimetidine], with 19.9 ± 3.7%. Regarding `Clc1cccc(Cl)c1N=C1NCCN1` [Clonidine], the inhibition at 100 µM in series [1] worked out at 15.2 ± 5.8%. Take `C[N+]1([O-])CCN(C2=Nc3cc(Cl)ccc3Nc3ccccc32)CC1` [Clozapine N-oxide]: the “Percentage inhibition (%) at 100 μM” value in series [5] (100 µM) is listed as 2.1 ± 3.0%. As to `C=C(CC)C(=O)c1ccc(OCC(=O)O)c(Cl)c1Cl` [Ethacrynic acid], the inhibition at 100 µM in series [1] is 8.1 ± 4.4%. Regarding `COc1ccccc1OCC(O)CO` (centres unmarked) [Guaifenesin], the inhibition at 100 µM in series [1] is -3.5 ± 7.4%. Same read-out and setting: for `CC(C)Cc1ccc(C(C)C(=O)O)cc1` (centres unmarked) [Ibuprofen] the value was 13.1 ± 2.1%. Take `CC(C(O)c1ccc(O)cc1)N1CCC(Cc2ccccc2)CC1` (centres unmarked) [Ifenprodil]: the half-maximal inhibitory concentration (IC50) in series [2] (setting [6]) is 410 nM; in series [3], 1590 ± 71 nM. `CC1Cc2ccccc2N1NC(=O)c1ccc(Cl)c(S(N)(=O)=O)c1` (centres unmarked) [Indapamide]: in series [1], the inhibition at 100 µM was determined as 4.8 ± 6.7%. On to `N=C(N)SCCc1ccc(OCc2ccc([N+](=O)[O-])cc2)cc1` [KB-R7943], for which the IC50 was 1780 ± 140 nM in series [5] and 89 nM in series [2] (setting [6]). `CN(C)c1ccc(O)c2c1C[C@H]1C[C@H]3[C@H](N(C)C)C(O)=C(C(N)=O)C(=O)[C@@]3(O)C(O)=C1C2=O` [Minocycline]: in series [1], the inhibition at 100 µM was -2.5 ± 11.9%.

Take `CC1(C)O[C@H]1COc1c2ccoc2cc2oc(=O)ccc12` [Oxypeucedanin]: in series [1], the inhibition at 100 µM was 4.5 ± 19.3%. Same read-out and setting: then `CC1=C(CC(=O)O)c2cc(F)ccc2/C1=C\c1ccc([S+](C)[O-])cc1` (centres unmarked) [Sulindac], with 1.1 ± 2.8%.

As to `O=c1n(CCCN2CCN(c3cccc(Cl)c3)CC2)nc2ccccn12` [Trazadone], the IC50 was 9250 ± 529 nM in series [5] and 690 to 2900 nM in series [2]. For `COc1cc(Cc2cnc(N)nc2N)cc(OC)c1OC` [Trimethoprim], the inhibition at 100 µM in series [1] amounted to 20.6 ± 1.9%.

Regarding `CC(=O)CC(c1ccccc1)c1c(O)c2ccccc2oc1=O` (centres unmarked) [Warfarin], the inhibition at 100 µM in series [1] was 9.1 ± 5.5%. Same read-out and setting: then `COC[C@H]1OC(=O)c2coc3c2[C@@]1(C)C1=C(C3=O)[C@@H]2CCC(=O)[C@@]2(C)C[C@H]1OC(C)=O` [Wortmannin], with 1.7 ± 5.8%. Regarding Penicillin, in series [4], the “Percentage inhibition (%) at 100 μM” value is −0.4 ± 9.5%.

Broadly, the inhibition is the change of the read-out against control, counted positive when it falls. One may read the IC50 as the concentration that inhibits the measured activity by half.

Values taken from patent US11579152B2, “Engineered hERG channel proteins, vesicles and methods of identifying small molecule pharmacological agents” (priority 2016, dated 2023).
